Laboratory results as given in patent publication US20230136569A1, “USE OF NMN TO REDUCE IMMUNODEPRESSION AND IMMUNOSENESCENCE” (NUVAMID SA, priority 2020, published 2023).

Assays:
[1] = system: CD4+ and CD8+ T cells (splenocytes); experiment: Proliferation assay of CFSE-stained splenocytes from treated mice after stimulation; type: in vivo; conditions: splenocytes of treated old mice, anti-CD3/CD28 beads 96 h
Method: Proliferation assay: At D0+5 weeks, the splenocytes were marked with 2.5 μM CFSE and cultured at a concentration of 0.25×10^6 cells per well in a 96-well plate. The cells were stimulated with 2.5 μg InfluvacTetra® and incubated at 37° C. for 96 hours. The cells were then marked with anti-CD4 and CD8 antibodies and the proliferation of the T CD4+ and CD8+ cells was analysed by flow cytometry. The total splenocytes were stained with Carboxyfluorescein succinimidyl ester (CFSE) and stimulated with beads coated with anti-CD3/CD28 for 96 h. The mean fluorescence intensity of the CFSE was analysed and the ratio before and after stimulation was calculated.

thymocytes = experiment: Flow cytometry of thymocytes from old mice; type: in vivo; conditions: 500 mg/kg p.o. in drinking water, 6 weeks (FIG. 3)
Method: The administering of β-NMN at 500 mg/kg, of α-NMN at 500 mg/kg and of the vehicle (water) was obtained via oral route (p.o) in the drinking water to young and old mice. The solutions were prepared by dissolving the powder of β-NMN or α-NMN in the vehicle (water). The study comprised 4 groups each having 6 mice: • Group 1: young mice (aged 10 weeks)+drinking water (vehicle) • Groupe 2: old mice (aged 15 months)+drinking water (vehicle) • Group 3: old mice (aged 15 months)+compound I-B (alpha-NMN) in the drinking water • Group 4: old mice (aged 15 months)+compound I-A (beta-NMN) in the drinking water The water consumption of the mice was assessed per cage every other day. The mice were weighed every week. The mice in Group 3 were sacrificed after 4 weeks for organ collection and characterisation of T cell function. The mice in Group 4 were sacrificed after 6 weeks for organ collection and characterisation of T cell function. On the day of sacrifice, the mice were anaesthetised with Vetoflurane (isoflurane) and blood samples were taken from the retroorbital sinus. The blood was incubated for 30 minutes at ambient temperature and then centrifuged at 1300 g for 10 minutes. […] The thymus was weighed and measured to evaluate involution thereof. […] Measured parameters: The results of flow cytometry are expressed in number or as a proportion of cells per organ. […]

NC(=O)c1ccc[n+]([C@@H]2O[C@H](COP(=O)([O-])O)[C@@H](O)[C@H]2O)c1 (stereo in doubt) [I-A, nicotinamide mononucleotide]
proliferation of CD4 cells ([1]; compared with the three other groups (FIG. 9A)): significant increase in the proliferation of CD4 and CD8 cells | proliferation of CD8 cells ([1]; compared with the three other groups (FIG. 9B)): significant increase in the proliferation of CD4 and CD8 cells | number of CD8+ thymocytes (thymocytes): increase in the number of CD8+ thymocytes
